Measured values reported in US11231421B2, “Methods of treating multifocal cancer” (NYMOX CORPORATION, priority 2019, dated 2022).
Where no end group is shown, it is not given here.

Assays:
Assay type in all cases: in vivo, human
[1] = test system: low grade prostate cancer (Gleason grade 6); assay: Clinical study, Example 2: new multifocal with increase Gleason primary pattern in entire prostate; settings: for % Imp.: new multifocal with increase Gleason primary pattern, entire prostate: vs control active surveillance
Experimental: (§1) In a series of clinical studies a total of 146 men with low grade prostate cancer (Gleason grade 6) were treated in the following manner. Patients were randomized and treated with a transrectal intraprostatic single injection of a composition comprising 2.5 mg FT (n=49), or a composition comprising 15 mg FT (n=48), or were subject to control active surveillance (n=49). After the first follow-up biopsy at 45 days post-randomization, 18 patients in the control active surveillance group crossed over to a single administration of a composition in which 10 patients received 2.5 mg FT, and 8 patients received 15 mg FT. Patients were followed for 5 years including biopsies at baseline, 45 days, 18, 36, and 48 months, and urological evaluations with PSA every 6 months. Patients with Gleason grade increase or who elected surgical or radiotherapeutic intervention exited the study and were still included in the data analysis. Percentage of normal biopsies in the baseline focus quadrant and median tumor grade and volume were assessed; progression was measured by clinical and pathological outcomes including Gleason grade, and Gleason grade primary pattern, in the entire prostate sampled as well as for the treated prostate lobe. Interventions associated with Gleason grade increase as well as total incidence for any conventional surgical intervention (e.g., surgery, radiotherapy, and/or chemotherapy) was assessed.

[2] = test system: low grade prostate cancer (Gleason grade 6); assay: Clinical study, Example 4: hemi-prostate multifocal cancer with increase in Gleason primary pattern; settings: for % Imp.: hemi-prostate multifocal cancer with increase in Gleason primary pattern: vs control active surveillance
Experimental: as §1

[3] = test system: low grade prostate cancer (Gleason grade 6); assay: Clinical study, Example 6: cancer treatment with new multifocal and an increase in Gleason grade primary pattern; settings: FT 2.5 mg
Experimental: as §1

[4] = FT 2.5 mg, <=18 mos from treatment
[5] = FT 2.5 mg, <=36 mos from treatment
[6] = FT 2.5 mg, <=48 mos from treatment
[7] = FT 15 mg, <=18 mos from treatment
[8] = FT 15 mg, <=36 mos from treatment
[9] = FT 15 mg, <=48 mos from treatment
[10] = Pooled FT (2.5 mg and 15 mg), <=18 mos from treatment
[11] = Pooled FT (2.5 mg and 15 mg), <=18 mos
[12] = Pooled FT (2.5 mg and 15 mg), <=36 mos from treatment
[13] = Pooled FT (2.5 mg and 15 mg), <=36 mos
[14] = Pooled FT (2.5 mg and 15 mg), <=48 mos from treatment
[15] = Pooled FT (2.5 mg and 15 mg), <=48 mos

fexapotide triflutate (IDQQVLSRIKLEIKRCL; also: trifluoroacetate salt) [FT]
percentage of patients: new multifocal with increase Gleason primary pattern, entire prostate [1, 4]: 0 (p = 0.17) %
% Imp.: new multifocal with increase Gleason primary pattern, entire prostate ([1]; FT 2.5 mg, <=18 mos): 100%
percentage of patients: new multifocal with increase Gleason primary pattern, entire prostate [1, 5]: 0 (p = 0.074) %
% Imp.: new multifocal with increase Gleason primary pattern, entire prostate ([1]; FT 2.5 mg, <=36 mos): 100%
percentage of patients: new multifocal with increase Gleason primary pattern, entire prostate [1, 6]: 0 (p = 0.009) %
% Imp.: new multifocal with increase Gleason primary pattern, entire prostate ([1]; FT 2.5 mg, <=48 mos): 100%
percentage of patients: new multifocal with increase Gleason primary pattern, entire prostate [1, 7]: 2.9%
% Imp.: new multifocal with increase Gleason primary pattern, entire prostate ([1]; FT 15 mg, <=18 mos): 82.6%
percentage of patients: new multifocal with increase Gleason primary pattern, entire prostate [1, 8]: 4.5%
% Imp.: new multifocal with increase Gleason primary pattern, entire prostate ([1]; FT 15 mg, <=36 mos): 82%
percentage of patients: new multifocal with increase Gleason primary pattern, entire prostate [1, 9]: 13.3%
% Imp.: new multifocal with increase Gleason primary pattern, entire prostate ([1]; FT 15 mg, <=48 mos): 62.7%
percentage of patients: new multifocal with increase Gleason primary pattern, entire prostate [1, 10]: 1.4 (p = 0.049) %
% Imp.: new multifocal with increase Gleason primary pattern, entire prostate [1, 11]: 91.6%
percentage of patients: new multifocal with increase Gleason primary pattern, entire prostate [1, 12]: 2.1 (p = 0.0031) %
% Imp.: new multifocal with increase Gleason primary pattern, entire prostate [1, 13]: 91.6%
percentage of patients: new multifocal with increase Gleason primary pattern, entire prostate [1, 14]: 6.5 (p = 0.012) %
% Imp.: new multifocal with increase Gleason primary pattern, entire prostate [1, 15]: 81.8%
percentage of patients: hemi-prostate multifocal cancer with increase in Gleason primary pattern [2, 4]: 0 (p = 0.033) %
% Imp.: hemi-prostate multifocal cancer with increase in Gleason primary pattern ([2]; FT 2.5 mg, <=18 mos): 100%
percentage of patients: hemi-prostate multifocal cancer with increase in Gleason primary pattern [2, 5]: 0 (p = 0.018) %
% Imp.: hemi-prostate multifocal cancer with increase in Gleason primary pattern ([2]; FT 2.5 mg, <=36 mos): 100%
percentage of patients: hemi-prostate multifocal cancer with increase in Gleason primary pattern [2, 6]: 0 (p = 0.037) %
% Imp.: hemi-prostate multifocal cancer with increase in Gleason primary pattern ([2]; FT 2.5 mg, <=48 mos): 100%
percentage of patients: hemi-prostate multifocal cancer with increase in Gleason primary pattern [2, 7]: 2.9%
% Imp.: hemi-prostate multifocal cancer with increase in Gleason primary pattern ([2]; FT 15 mg, <=18 mos): 76.8%
percentage of patients: hemi-prostate multifocal cancer with increase in Gleason primary pattern [2, 8]: 4.5%
% Imp.: hemi-prostate multifocal cancer with increase in Gleason primary pattern ([2]; FT 15 mg, <=36 mos): 79%
percentage of patients: hemi-prostate multifocal cancer with increase in Gleason primary pattern [2, 9]: 6.7%
% Imp.: hemi-prostate multifocal cancer with increase in Gleason primary pattern ([2]; FT 15 mg, <=48 mos): 75.5%
percentage of patients: hemi-prostate multifocal cancer with increase in Gleason primary pattern [2, 10]: 1.4 (p = 0.03) %
% Imp.: hemi-prostate multifocal cancer with increase in Gleason primary pattern [2, 11]: 88.8%
percentage of patients: hemi-prostate multifocal cancer with increase in Gleason primary pattern [2, 12]: 2.2 (p = 0.011) %
% Imp.: hemi-prostate multifocal cancer with increase in Gleason primary pattern [2, 13]: 89.7%
percentage of patients: hemi-prostate multifocal cancer with increase in Gleason primary pattern [2, 14]: 3.4 (p = 0.025) %
% Imp.: hemi-prostate multifocal cancer with increase in Gleason primary pattern [2, 15]: 87.5%
percentage of patients: cancer treatment with new multifocal and an increase in Gleason grade primary pattern, entire prostate ([3]; <=18 mos from treatment): 0 (p = 0.001) %
% Imp.: cancer treatment with new multifocal and an increase in Gleason grade primary pattern, entire prostate ([3]; <=18 mos, vs control active surveillance): 100%
